Like-named read-outs stand apart in the source and are kept apart here.
Assays:
human TLR7 = target: T1, human TLR7 (Homo sapiens, UniProt Q9NYK1); assay: HEK-Blue hTLR7 SEAP reporter gene inhibition assay; format: cell-based
T1 sequence (Q9NYK1 27-1049): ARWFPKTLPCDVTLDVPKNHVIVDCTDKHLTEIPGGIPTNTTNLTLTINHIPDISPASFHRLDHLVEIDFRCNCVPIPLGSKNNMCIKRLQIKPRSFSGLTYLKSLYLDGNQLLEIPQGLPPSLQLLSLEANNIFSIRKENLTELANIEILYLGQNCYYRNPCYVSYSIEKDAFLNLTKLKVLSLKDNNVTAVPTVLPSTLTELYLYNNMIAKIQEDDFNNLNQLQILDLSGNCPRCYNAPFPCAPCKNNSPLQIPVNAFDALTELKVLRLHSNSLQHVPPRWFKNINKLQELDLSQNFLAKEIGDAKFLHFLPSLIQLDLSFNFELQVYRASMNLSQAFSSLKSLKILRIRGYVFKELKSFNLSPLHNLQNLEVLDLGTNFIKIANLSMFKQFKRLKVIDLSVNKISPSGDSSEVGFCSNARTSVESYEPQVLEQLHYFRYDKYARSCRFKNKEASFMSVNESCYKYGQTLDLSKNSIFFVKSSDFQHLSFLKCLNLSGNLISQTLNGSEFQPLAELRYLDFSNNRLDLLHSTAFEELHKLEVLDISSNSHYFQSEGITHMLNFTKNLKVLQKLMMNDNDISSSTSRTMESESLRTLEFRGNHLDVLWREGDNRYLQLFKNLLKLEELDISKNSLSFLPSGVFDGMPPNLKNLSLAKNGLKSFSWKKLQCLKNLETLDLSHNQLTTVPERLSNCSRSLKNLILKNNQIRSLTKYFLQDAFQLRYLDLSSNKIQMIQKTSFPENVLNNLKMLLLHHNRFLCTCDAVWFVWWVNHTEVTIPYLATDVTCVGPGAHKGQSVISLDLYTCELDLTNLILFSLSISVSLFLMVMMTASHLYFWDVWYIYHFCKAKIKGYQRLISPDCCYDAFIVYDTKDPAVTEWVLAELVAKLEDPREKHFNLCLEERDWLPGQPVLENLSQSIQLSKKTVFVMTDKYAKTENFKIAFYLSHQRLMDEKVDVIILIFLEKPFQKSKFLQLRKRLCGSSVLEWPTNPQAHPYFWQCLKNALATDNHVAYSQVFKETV
Method in brief: (§1)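 SEAP read-out by Quanti-Blue after 20 h stimulation gave IC50 values. Stable hTLR7 or hTLR8 HEK-Blue cells were pretreated 15 min with compound at 0.001–36 µM final, then stimulated with 10 µM Gardiquimod (TLR7) or 10 µM TLR8 ligand.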

human TLR8 = target: T2, human TLR8 (Homo sapiens, UniProt Q9NR97); assay: HEK-Blue hTLR8 SEAP reporter gene inhibition assay; format: cell-based
T2 construct: expressed in transfected cells
T2 sequence (Q9NR97 27-1041): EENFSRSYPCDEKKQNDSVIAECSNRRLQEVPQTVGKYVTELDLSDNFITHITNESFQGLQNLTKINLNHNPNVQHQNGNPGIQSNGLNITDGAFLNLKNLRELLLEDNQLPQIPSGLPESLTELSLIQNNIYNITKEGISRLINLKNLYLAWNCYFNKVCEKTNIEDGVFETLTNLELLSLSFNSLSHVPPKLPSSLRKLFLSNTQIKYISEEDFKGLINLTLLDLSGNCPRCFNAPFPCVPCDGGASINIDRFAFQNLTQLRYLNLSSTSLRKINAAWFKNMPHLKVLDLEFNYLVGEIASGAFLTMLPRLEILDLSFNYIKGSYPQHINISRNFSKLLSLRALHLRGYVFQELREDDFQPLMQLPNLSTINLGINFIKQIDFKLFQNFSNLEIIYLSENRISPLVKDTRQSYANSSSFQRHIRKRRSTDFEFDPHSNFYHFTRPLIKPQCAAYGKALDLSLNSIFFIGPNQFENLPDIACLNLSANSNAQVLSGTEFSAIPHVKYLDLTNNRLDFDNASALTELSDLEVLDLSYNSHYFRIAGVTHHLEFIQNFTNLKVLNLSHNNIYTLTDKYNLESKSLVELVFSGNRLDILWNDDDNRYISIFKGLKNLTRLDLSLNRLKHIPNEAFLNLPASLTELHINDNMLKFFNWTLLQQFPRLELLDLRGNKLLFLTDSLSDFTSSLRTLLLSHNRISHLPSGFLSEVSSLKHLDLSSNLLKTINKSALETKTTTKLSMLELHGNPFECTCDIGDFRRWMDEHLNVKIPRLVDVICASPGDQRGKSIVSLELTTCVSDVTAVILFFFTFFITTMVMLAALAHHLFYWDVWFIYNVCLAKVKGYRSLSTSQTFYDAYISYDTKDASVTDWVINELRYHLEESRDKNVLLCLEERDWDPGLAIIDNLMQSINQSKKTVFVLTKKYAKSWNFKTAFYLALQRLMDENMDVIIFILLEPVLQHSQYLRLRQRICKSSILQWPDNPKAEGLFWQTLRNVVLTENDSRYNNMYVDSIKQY
Method in brief: as §1

[1] = hTLR7 HEK-Blue cells, TLR7 ligand Gardiquimod 10 µM, 20 hours, SEAP by Quanti-blue, class symbols, read-out: HEK-Blue hTLR7 IC50
[2] = hTLR8 HEK-Blue cells, TLR8 ligand 10 µM, 20 hours, SEAP by Quanti-blue, class symbols, read-out: HEK-Blue hTLR8 IC50

IC50 (human TLR7; [1]) | IC50 (human TLR8; [2]) | Compound | further results
< 0.05 µM | > 0.1 µM | C[C@@H]1CN(c2ccc(C#N)n3ncc(F)c23)Cc2c3c(nn21)CN(C1CCOC1)[C@@H](C)C3 (stereo partly drawn) [Example I-142, 4-((4R,9S)-4,9-dimethyl-8-(tetrahydrofuran-3-yl)-3,4,7,8,9,10-hexahydropyrido [3',4':3,4]pyrazolo[1,5-a]pyrazin-2(1H)-yl)-3-fluoropyrazolo[1,5-a]pyridine-7-carbonitrile] | –
> 0.05 µM | > 0.1 µM | C[C@@H]1CN(c2ccc(C#N)n3ncc(F)c23)Cc2c3c(nn21)CN([C@H]1CCNC1=O)[C@@H](C)C3 [Example I-157, 4-((4R,9S)-4,9-dimethyl-8-((S)-2-oxopyrrolidin-3-yl)-3,4,7,8,9,10-hexahydropyrido[3',4':3,4]pyrazolo[1,5-a]pyrazin-2(1H)-yl)-3-fluoropyrazolo[1,5-a]pyridine-7-carbonitrile] | –
< 0.05 µM | < 0.1 µM | C[C@@H]1CN(c2ccc(C#N)n3ncc(F)c23)Cc2c3c(nn21)CC(N)CC3 (single isomer, unassigned) [Example I-20b] | –
< 0.05 µM | > 0.1 µM | C[C@@H]1CN(c2ccc(C#N)n3ncc(F)c23)Cc2c3c(nn21)CN(C1CCC1O)[C@@H](C)C3 (stereo partly drawn) [Example I-174, 3-Fluoro-4-((4R,9S)-8-(2-hydroxycyclobutyl)-4,9-dimethyl-3,4,7,8,9,10-hexahydropyrido[3',4':3,4]pyrazolo[1,5-a]pyrazin-2(1H)-yl)pyrazolo[1,5-a]pyridine-7-carbonitrile] | –
< 0.05 µM | < 0.1 µM | C[C@@H]1CN(c2ccc(C#N)n3ncc(F)c23)Cc2c3c(nn21)CN(Cc1cn[nH]c1)[C@@H](C)C3 [Example I-137, 4-((4R,9S)-8-((1H-pyrazol-4-yl)methyl)-4,9-dimethyl-3,4,7,8,9,10-hexahydropyrido [3',4':3,4]pyrazolo[1,5-a]pyrazin-2(1H)-yl)-3-fluoropyrazolo[1,5-a]pyridine-7-carbonitrile] | –
< 0.05 µM | > 0.1 µM | C[C@@H]1CN(c2ccc(C#N)n3ncc(F)c23)Cc2c3c(nn21)CN(CC(=O)N1C[C@H](C)N[C@@H](C)C1)[C@@H](C)C3 [Example I-144, 4-((4R,9S)-8-(2-((3S,5S)-3,5-dimethylpiperazin-1-yl)-2-oxoethyl)-4,9-dimethyl-3,4,7,8,9,10-hexahydropyrido[3',4':3,4]pyrazolo[1,5-a]pyrazin-2(1H)-yl)-3-fluoropyrazolo[1,5-a]pyridine-7-carbonitrile] | –
< 0.05 µM | < 0.1 µM | CC1Cc2nn3c(c2CN1)CN(c1ccc(C#N)n2ncc(F)c12)C[C@H]3C (single isomer, unassigned) [Example I-11a] | –

More lines, now with the values behind:

Compound | IC50 (human TLR7; [1]) | IC50 (human TLR8; [2]) | further results
C[C@@H]1CN(c2ccc(C#N)n3ncc(F)c23)Cc2c3c(nn21)CN(CC1(N)COC1)[C@@H](C)C3 [Example I-184, 4-((4R,9S)-8-((3-aminooxetan-3-yl)methyl)-4,9-dimethyl-3,4,7,8,9,10-hexahydropyrido[3',4':3,4]pyrazolo[1,5-a]pyrazin-2(1H)-yl)-3-fluoropyrazolo[1,5-a]pyridine-7-carbonitrile] | > 0.05 µM | > 0.1 µM | –
C[C@@H]1CN(c2ccc(C#N)n3ncc(F)c23)Cc2c3c(nn21)CN(C[C@](C)(O)CO)[C@@H](C)C3 [Example I-226, 4-((4R,9S)-8-((S)-2,3-dihydroxy-2-methylpropyl)-4,9-dimethyl-3,4,7,8,9,10-hexahydropyrido[3',4':3,4]pyrazolo[1,5-a]pyrazin-2(1H)-yl)-3-fluoropyrazolo[1,5-a]pyridine-7-carbonitrile] | < 0.05 µM | > 0.1 µM | –
C[C@@H]1CN(c2ccc(C#N)n3ncc(F)c23)Cc2c3c(nn21)CN[C@@H](CO)C3 [Example I-77, 3-Fluoro-4-((4R,9R)-9-(hydroxymethyl)-4-methyl-3,4,7,8,9,10-hexahydropyrido [3',4':3,4]pyrazolo[1,5-a]pyrazin-2(1H)-yl)pyrazolo[1,5-a]pyridine-7-carbonitrile] | > 0.05 µM | < 0.1 µM | –
C[C@@H]1CN(c2ccc(C#N)n3ncc(F)c23)Cc2c3c(nn21)CC(N(C)C)CC3 (stereo partly drawn) [Example I-27, 4-((4R)-8-(dimethylamino)-4-methyl-3,4,7,8,9,10-hexahydropyrazino[1,2-b]indazol-2(1H)-yl)-3-fluoropyrazolo[1,5-a]pyridine-7-carbonitrile] | > 0.05 µM | < 0.1 µM | –
C[C@@H]1CN(c2ccc(C#N)n3ncc(F)c23)Cc2c3c(nn21)CNCC3CO (stereo partly drawn) [Example I-40, 3-Fluoro-4-((4R)-10-(hydroxymethyl)-4-methyl-3,4,7,8,9,10-hexahydropyrido [3',4':3,4]pyrazolo[1,5-a]pyrazin-2(1H)-yl)pyrazolo[1,5-a]pyridine-7-carbonitrile] | > 0.05 µM | < 0.1 µM | –
C[C@@H]1CN(c2ccc(C#N)n3ncc(F)c23)Cc2c3c(nn21)CN(C1CC2(COC2)C1)[C@@H](C)C3 [Example I-135] | – | – | IC50 (human TLR7; HEK-Blue hTLR7 IC50 (µM)): < 0.05 µM; IC50 (human TLR8; HEK-Blue hTLR8 IC50 (µM)): < 0.1 µM
CC1Cc2c(nn3c2CN(c2ccc(C#N)n4ncc(F)c24)C[C@H]3C)CN1 (stereo partly drawn) [Example I-30, 4-((4R)-4,9-dimethyl-3,4,7,8,9,10-hexahydropyrido[3',4':3,4]pyrazolo[1,5-a]pyrazin-2(1H)-yl)-3-fluoropyrazolo[1,5-a]pyridine-7-carbonitrile] | < 0.05 µM | < 0.1 µM | –
CC(C(N)=O)N1Cc2nn3c(c2C[C@@H]1C)CN(c1ccc(C#N)n2ncc(F)c12)C[C@H]3C (stereo partly drawn) [Example I-156, 2-((4R,9S)-2-(7-cyano-3-fluoropyrazolo[1,5-a]pyridin-4-yl)-4,9-dimethyl-1,2,3,4,9,10-hexahydropyrido[3',4':3,4]pyrazolo[1,5-a]pyrazin-8(7H)-yl)propanamide] | > 0.05 µM | > 0.1 µM | –
N#Cc1ccc(N2C[C@H](N)C[C@H](C(F)(F)F)C2)c2cccnc12 [Example M5049, reference compound] | – | – | IC50 (human TLR7; hTLR7 HEK-Blue cells, TLR7 ligand Gardiquimod 10 µM, 20 hours, SEAP by Quanti-blue, numeric value, read-out: HEK-Blue hTLR7 IC50): 0.064 µM; IC50 (human TLR8; hTLR8 HEK-Blue cells, TLR8 ligand 10 µM, 20 hours, SEAP by Quanti-blue, numeric value, read-out: HEK-Blue hTLR8 IC50): 0.15 µM
4-((4R,9S)-8-(cyanomethyl)-4,9-dimethyl-3,4,7,8,9,10-hexahydropyrido[3',4':3,4] pyrazolo[1,5-a]pyrazin-2(1H)-yl)-3-fluoropyrazolo[1,5-a]pyridine-7-carbonitrile [Example I-124] | < 0.05 µM | < 0.1 µM | –
